Measured values from patent US8629330B2, “Methods and compositions for the inhibition of meristematic growth on cucurbit rootstock” (Syngenta Participations AG, priority 2012, dated 2014).

Tests used:
[1] = tested on: shoot apical meristem of cucurbit rootstock plant; test: Inhibition of the shoot apical meristem of cucurbit rootstock; assay type: in vivo; details: fatty alcohols about 2.3% (v/v); Oryzalin about 10 mM; sulfuric acid about 18N to about 9N; applied to shoot apical meristem
Excerpt: Rootstock plants, bottle gourd (Lagenaria siceraria var. ‘Emphasis’) or interspecific hybrid squash (C. maxima×C. moschata var. ‘Carnivor’), were sown in Fafard 3-b fertilizer-free mix and allowed to germinate. At the point when the cotyledons unfolded, (approx. 5-10 days after seeding) a droplet of a composition comprising fatty alcohols was applied to the shoot apical meristem of the seedling, between the cotyledons, so that the meristem was covered with solution. […] The droplet volume was 20 to 500 μL and was applied with a pipette (20-200 μL or 1000 μL volume capability, using plastic tips). Seedlings were watered prior to treatment, to avoid needing to water post-treatment, which can dilute or wash away the fatty alcohol solution and prevent burnout of the shoot apical meristem. The treated rootstock seedlings can then be grafted to the appropriate scion at about 1 to 21 days post-treatment. In this case, the rootstock seedling was grafted to a cucurbit scion at about 24 hours after the rootstock shoot apical meristem was first contacted with the fatty alcohol composition.
Maleic hydrazide (21.7%; Royal MH-30®; Chemtura Corp., Middlebury, Conn.) at a concentration of about 90 mg/ml was applied to the shoot apical meristem of rootstock plant. The treated rootstock plants were incubated for about 24 hours prior to grafting to a scion.

[2] = tested on: cucurbit rootstock seedling grafted to watermelon or melon scion
Description: Grafting can be performed at about 1-21 days after a rootstock shoot apical meristem is treated with a fatty alcohol solution. Possible grafting methods include the following: 1) hole-insertion, in which the rootstock meristem is removed, a hole is punched into the old meristematic area with a bamboo needle, and the scion (cut at the end to both sharpen and expose vascular cambium tissue) is inserted into the prepared rootstock; and 2) one cotyledon, where the rootstock's meristem area and one cotyledon are removed, and the cut scion hypocotyl is adjoined to the resulting wound, stabilized with a clip, and allowed to heal. Once grafted, the plants are placed for approximately seven days in a healing chamber under high humidity for about the first 1-3 days, and then gradually decreasing humidity for the remaining days. After about seven days of healing, the grafted plants can be removed from the chamber and planted.
In this case, the cucurbit rootstock seedling as described in Example 1 was grafted to a cucurbit scion, watermelon (Citrullus lanatus subsp. vulgaris cv. ‘Tri-X-313’) or melon (Cucumis melo cv. ‘Athena’) at about 24 hours after the rootstock shoot apical meristem was first contacted with the fatty alcohol composition. Seven days were allowed for the graft to heal. […]

Structure (SMILES): O=S(=O)(O)O [sulfuric acid, Sulfuric acid]
- effect on rootstock shoot apical meristem [1]: death of the shoot apical meristem
- successful grafts out of 2016 attempted grafts ([2]; grafted about 24 hours after treatment, fatty alcohols about 2.3% (v/v), maleic hydrazide about 90 mg/ml, Oryzalin about 10 mM, sulfuric acid about 18N to about 9N): none were successful
- effect on grafting tissues ([2]; sulfuric acid about 18N to about 9N applied to shoot apical meristem): the grafting tissues were also destroyed
